Results from ChEMBL document CHEMBL5728361, “(S)-2-(1-cyclopropylethyl)-5-(4-methyl-2-((6-(2-oxopyrrolidin-1-yl)pyridin-2-yl)amino) thiazol-5-yl)-7-(methylsulfonyl)isoindolin-1-one as a phosphatidylinositol 3-kinase inhibitor” (2021).

Assays:
[1] = (§1) Enzymatic Activity Assay : The activity of recombinant human PI3Kγ ((aa144-1102)-6His) and PI3Kα, β, δ (6-His(p110-p85α)) was determined by measuring the ADP level after phosphorylation of DiC8-PIP2 using a commercially available ADP-Glo™ kit from Promega. The assay was carried out in white low volume 384 well plates in a final volume of 14 μl at R.T. The assay conditions contained the following: 50 mM Tris buffer pH 7.4, 2.1 mM DTT, 3 mM MgCl2, 0.05% CHAPS, 20 μM ATP, 80 μM DiC8-PIP2 and 1.2 nM PI3Kα, β, γ or 0.6 nM PI3Kδ. Potential inhibitors were made up in DMSO and then diluted in the assay to give a final concentration of not exceeding 1% (v/v) DMSO. […] Routinely, inhibitors were pre-incubated with 3 μl of enzyme for 15 min prior to the addition of 2 μl substrate mixture for a further 60 min enzyme reaction. The phosphorylation was stopped with the addition of 3 μl ADP-Glo™ reagent (stop solution) followed by a 40 min incubation. Prior to detection 6 μl of ADP-Glo™ Kinase Detection Reagent was added and the plates were read in a micro plate reader using a Luminescence filter. All additions were followed by a short centrifugation step.
[2] = target: T1, Phosphatidylinositol 4,5-bisphosphate 3-kinase catalytic subunit delta isoform (Homo sapiens, UniProt O00329); assay: as §1
T1 sequence (O00329 whole entry): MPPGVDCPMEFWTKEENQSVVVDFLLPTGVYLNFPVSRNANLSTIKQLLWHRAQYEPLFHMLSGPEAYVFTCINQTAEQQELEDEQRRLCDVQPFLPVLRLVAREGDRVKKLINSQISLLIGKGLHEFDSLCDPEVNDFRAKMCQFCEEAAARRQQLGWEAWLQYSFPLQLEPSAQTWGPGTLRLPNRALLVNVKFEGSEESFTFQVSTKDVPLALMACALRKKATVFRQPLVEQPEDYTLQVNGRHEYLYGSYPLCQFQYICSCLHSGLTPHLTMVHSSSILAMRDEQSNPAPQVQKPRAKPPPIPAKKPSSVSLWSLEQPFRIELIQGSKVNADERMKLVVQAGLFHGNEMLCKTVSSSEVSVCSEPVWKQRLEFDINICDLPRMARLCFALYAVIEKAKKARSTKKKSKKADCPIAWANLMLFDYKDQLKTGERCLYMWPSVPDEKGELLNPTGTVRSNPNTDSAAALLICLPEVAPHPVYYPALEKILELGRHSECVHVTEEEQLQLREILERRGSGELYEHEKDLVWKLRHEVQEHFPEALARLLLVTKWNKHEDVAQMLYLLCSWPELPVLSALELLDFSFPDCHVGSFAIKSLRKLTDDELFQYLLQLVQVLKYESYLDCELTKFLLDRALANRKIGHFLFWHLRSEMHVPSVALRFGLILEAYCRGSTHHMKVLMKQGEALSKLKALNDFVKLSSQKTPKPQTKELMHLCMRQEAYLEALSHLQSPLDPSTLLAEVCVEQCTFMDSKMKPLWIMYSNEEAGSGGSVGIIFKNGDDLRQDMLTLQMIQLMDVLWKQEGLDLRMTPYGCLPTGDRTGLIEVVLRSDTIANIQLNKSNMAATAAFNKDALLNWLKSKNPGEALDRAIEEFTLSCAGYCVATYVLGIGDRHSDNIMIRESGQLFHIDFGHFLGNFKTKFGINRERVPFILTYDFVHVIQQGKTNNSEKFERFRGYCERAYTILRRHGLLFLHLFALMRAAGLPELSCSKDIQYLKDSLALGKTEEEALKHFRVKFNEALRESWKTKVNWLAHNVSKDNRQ

[3] = target: Phosphatidylinositol 4,5-bisphosphate 3-kinase catalytic subunit beta isoform (Homo sapiens, UniProt P42338); assay: as §1
Sequence of Phosphatidylinositol 4,5-bisphosphate 3-kinase catalytic subunit beta isoform (P42338 whole entry, canonical isoform): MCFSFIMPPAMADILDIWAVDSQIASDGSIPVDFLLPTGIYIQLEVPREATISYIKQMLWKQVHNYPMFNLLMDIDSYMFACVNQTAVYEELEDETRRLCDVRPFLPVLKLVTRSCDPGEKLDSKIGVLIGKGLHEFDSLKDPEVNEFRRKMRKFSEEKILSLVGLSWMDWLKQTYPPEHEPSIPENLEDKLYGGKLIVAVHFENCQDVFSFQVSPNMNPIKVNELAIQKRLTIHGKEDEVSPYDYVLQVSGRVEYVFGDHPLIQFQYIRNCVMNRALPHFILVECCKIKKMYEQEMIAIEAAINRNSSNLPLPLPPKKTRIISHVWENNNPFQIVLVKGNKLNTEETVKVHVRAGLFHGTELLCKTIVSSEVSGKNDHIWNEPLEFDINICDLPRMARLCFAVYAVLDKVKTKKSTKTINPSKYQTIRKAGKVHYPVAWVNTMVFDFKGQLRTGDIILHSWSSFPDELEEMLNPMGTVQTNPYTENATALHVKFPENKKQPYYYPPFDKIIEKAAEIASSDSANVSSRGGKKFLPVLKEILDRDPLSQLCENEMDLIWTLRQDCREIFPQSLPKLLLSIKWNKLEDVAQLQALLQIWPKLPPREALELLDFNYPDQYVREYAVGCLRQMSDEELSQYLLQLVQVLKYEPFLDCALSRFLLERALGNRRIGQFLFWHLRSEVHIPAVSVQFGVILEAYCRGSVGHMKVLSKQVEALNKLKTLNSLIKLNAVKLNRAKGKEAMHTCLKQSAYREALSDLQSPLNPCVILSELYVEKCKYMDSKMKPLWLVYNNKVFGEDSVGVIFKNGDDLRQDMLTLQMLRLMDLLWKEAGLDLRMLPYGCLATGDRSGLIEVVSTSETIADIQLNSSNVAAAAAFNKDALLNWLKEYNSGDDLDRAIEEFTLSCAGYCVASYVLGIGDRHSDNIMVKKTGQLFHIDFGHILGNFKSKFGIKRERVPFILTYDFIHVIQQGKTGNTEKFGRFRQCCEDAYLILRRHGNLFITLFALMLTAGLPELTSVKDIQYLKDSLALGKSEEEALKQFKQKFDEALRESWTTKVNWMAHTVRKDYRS

[4] = target: Phosphatidylinositol 4,5-bisphosphate 3-kinase catalytic subunit alpha isoform (Homo sapiens, UniProt P42336); assay: as §1
Sequence of Phosphatidylinositol 4,5-bisphosphate 3-kinase catalytic subunit alpha isoform (P42336 whole entry, canonical isoform): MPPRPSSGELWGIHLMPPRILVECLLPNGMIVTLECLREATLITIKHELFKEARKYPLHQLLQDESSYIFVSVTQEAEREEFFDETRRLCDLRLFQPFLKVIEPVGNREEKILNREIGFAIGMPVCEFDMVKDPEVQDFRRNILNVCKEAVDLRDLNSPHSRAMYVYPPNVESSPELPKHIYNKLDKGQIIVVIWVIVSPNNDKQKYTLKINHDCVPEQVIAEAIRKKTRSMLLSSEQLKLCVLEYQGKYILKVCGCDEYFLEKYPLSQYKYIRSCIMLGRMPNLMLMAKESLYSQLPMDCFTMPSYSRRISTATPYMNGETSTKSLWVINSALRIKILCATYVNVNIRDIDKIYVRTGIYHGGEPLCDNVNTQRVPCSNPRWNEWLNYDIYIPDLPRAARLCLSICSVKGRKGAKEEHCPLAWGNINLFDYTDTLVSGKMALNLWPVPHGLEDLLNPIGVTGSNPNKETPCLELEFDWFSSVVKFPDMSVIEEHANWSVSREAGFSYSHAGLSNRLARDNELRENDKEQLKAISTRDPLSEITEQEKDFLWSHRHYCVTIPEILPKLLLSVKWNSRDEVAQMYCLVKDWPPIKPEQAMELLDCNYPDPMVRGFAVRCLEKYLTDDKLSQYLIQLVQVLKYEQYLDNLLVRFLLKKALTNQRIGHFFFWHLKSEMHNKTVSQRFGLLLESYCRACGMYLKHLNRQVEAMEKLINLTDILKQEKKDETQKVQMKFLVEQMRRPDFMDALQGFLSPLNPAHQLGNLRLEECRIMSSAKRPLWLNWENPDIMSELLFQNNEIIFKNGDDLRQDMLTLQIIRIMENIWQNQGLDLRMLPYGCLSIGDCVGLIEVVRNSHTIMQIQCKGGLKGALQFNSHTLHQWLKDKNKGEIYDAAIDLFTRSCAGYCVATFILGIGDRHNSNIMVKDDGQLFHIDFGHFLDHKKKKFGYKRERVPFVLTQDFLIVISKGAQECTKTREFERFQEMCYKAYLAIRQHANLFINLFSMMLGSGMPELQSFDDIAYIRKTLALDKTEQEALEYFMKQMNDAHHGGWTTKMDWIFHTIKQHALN

Structure (SMILES) | IC50 [1] [nM] | IC50 [2] [nM] | IC50 [3] [nM] | IC50 [4] [nM]
Cc1nc(Nc2cccc(N3CCCC3=O)c2)sc1-c1cc2c(c(S(C)(=O)=O)c1)C(=O)N([C@@H](C)C1CC1)C2 | 0.9 | – | – | –
CC[C@H](C)N1Cc2cc(-c3sc(Nc4cccc(N5CCCOC5=O)n4)nc3C)cc(S(=O)(=O)NC)c2C1=O | – | 2.2 | 459 | 80
